According to patent publication US9090658B2, “Base-substituted benzylamine analogs for use as coagulation factor Xa inhibitors, the production and use thereof” (The Medicines Company (Leipzig) GmbH, priority 2003, dated 2015):
Counter-ions that a name gives are not always drawn.

Key:
Thrombin = Thrombin (UniProt P00735); assay: Determination of the inhibitory constants for thrombin (method of Stürzebecher et al. 1997); assay type: biochemical
Source text: The Ki values are the average of at least three determinations.

factor Xa = molecular target: T1, factor Xa (Bos taurus, UniProt P00743); assay: Determination of the inhibitory constants for factor Xa (chromogenic substrate Moc-D-Nle-Gly-Arg-pNA, Dixon method); assay type: biochemical, bovine; conditions: for Ki: bovine factor Xa, 25° C., pH 8.0, average of at least three determinations
T1 construct: purchased Diagnostic Reagents Ltd, Thame, GB
T1 sequence (P00743 234-492 limits assumed): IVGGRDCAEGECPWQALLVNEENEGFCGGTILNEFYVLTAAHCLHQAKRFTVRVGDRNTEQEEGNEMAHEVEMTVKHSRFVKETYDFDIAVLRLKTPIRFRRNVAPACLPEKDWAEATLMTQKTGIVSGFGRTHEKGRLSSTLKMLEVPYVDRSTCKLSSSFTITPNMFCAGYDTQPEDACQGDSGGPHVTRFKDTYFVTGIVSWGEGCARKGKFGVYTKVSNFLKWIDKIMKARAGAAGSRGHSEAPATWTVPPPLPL
T1 sequence (P00743 41-180 partner limits assumed): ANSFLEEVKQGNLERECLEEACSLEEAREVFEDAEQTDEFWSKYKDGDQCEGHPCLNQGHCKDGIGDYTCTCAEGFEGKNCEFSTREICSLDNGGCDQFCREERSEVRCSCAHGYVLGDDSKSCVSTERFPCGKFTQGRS
Method: Determination of the inhibitory Effect
To determine the inhibitory effect, 200 μl of this buffer (0.05 M 0.154 M NaCl, 5% Ethanol, pH 8.0; contains the inhibitor), 25 μl of substrate (Moc-D-Nle-Gly-Arg-pNA in H2O; Pentapharm Ltd., Basle, Switzerland) and 50 μl of factor Xa (bovine, Diagnostic Reagents Ltd, thame, GB) were incubated at 25° C. After 3 min, the reaction was stopped By adding 25 μl of acetic acid (50%), and the absorption at 405 nm was determined using a Microplate Reader (MR 5000, Dynatech, Denkendorf, Germany). The Ki values were Founder by the Dixon method (boichem. J. 55, 170-171, 1953) by linear regression using a Computer program. The Ki values are the average of at least three determinations. The Thrombin inhibitions was determined in analogy to a method described earlier (Stürzebecher et al., J. Med. Chem. 40, 3091-3099, 1997).

With `N=C(N)c1ccc(CNC(=O)CNC(=O)C(CCc2ccncc2)NS(=O)(=O)Cc2ccccc2)cc1` (racemic) [Compound 1, Bzls-D,L-homoAla(4-Pyr)-Gly-4Amba×2 TFA] the Ki (Thrombin) was 2000 nM, the “selectivity ratio SR (SR = Ki thrombin/Ki factor Xa)” value (“selectivity ratio SR” for short) (factor Xa) was 690 and the Ki (factor Xa) was 2.9 nM.

In the case of `N=C(N)c1ccc(CNC(=O)CNC(=O)C(CCc2ccncc2)NS(=O)(=O)Cc2ccncc2)cc1` (racemic) [Compound 2, 4-PMs-D,L-homoAla(4-Pyr)-Gly-4Amba×3 Acetate], the Ki (Thrombin) is reported as 3200 nM, the “selectivity ratio SR” value (factor Xa) is reported as 246 and the Ki (factor Xa) is reported as 13 nM.

In the case of `N=C(N)c1ccc(CNC(=O)[C@H](CO)NC(=O)[C@@H](CCc2ccncc2)NS(=O)(=O)Cc2ccccc2)cc1` [Compound 3a, Bzls-D,L-homoAla(4-Pyr)-Ser-4Amba×2 TFA], the Ki (Thrombin) is reported as 910 nM, the “selectivity ratio SR” value (factor Xa) is reported as 97 and the Ki (factor Xa) is reported as 9.4 nM.

For `N=C(N)c1ccc(CNC(=O)[C@H](CO)NC(=O)[C@H](CCc2ccncc2)NS(=O)(=O)Cc2ccccc2)cc1` [Compound 3b, Bzls-D,L-homoAla(4-Pyr)-Ser-4Amba×2 TFA], the Ki (Thrombin) was 4600 nM, the “selectivity ratio SR” value (factor Xa) was 48.4 and the Ki (factor Xa) was 95 nM.

For `N=C(N)c1ccc(CNC(=O)[C@H](CO)NC(=O)C(CCc2ccncc2)NS(=O)(=O)Cc2ccncc2)cc1` (stereo partly drawn) [Compound 4, 4-PMs-D,L-homoAla(4-Pyr)-Ser-4Amba×3 acetate], the Ki (Thrombin) was 6300 nM, the “selectivity ratio SR” value (factor Xa) was 65 and the Ki (factor Xa) was 97 nM.

With `N=C(N)c1ccc(CNC(=O)CNC(=O)[C@@H](CCc2ccc(O)cc2)NS(=O)(=O)Cc2ccccc2)cc1` [Compound 5, Bzls-d-homoTyr-Gly-4Amba×TFA] the Ki (Thrombin) was 1500 nM, the “selectivity ratio SR” value (factor Xa) was 556 and the Ki (factor Xa) was 2.7 nM.

For `N=C(N)c1ccc(CNC(=O)[C@H](CO)NC(=O)[C@@H](CCc2ccc(O)cc2)NS(=O)(=O)Cc2ccccc2)cc1` [Compound 6, Bzls-d-homoTyr-Ser-4Amba×TFA], the Ki (Thrombin) was 1400 nM, the “selectivity ratio SR” value (factor Xa) was 74 and the Ki (factor Xa) was 19 nM.

`N=C(N)c1ccc(CNC(=O)[C@H](CO)NC(=O)[C@@H](CCc2ccccc2)NS(=O)(=O)Cc2ccncc2)cc1` [Compound 7, 4-PMs-dhomoPhe-Gly-4Amba×2 TFA] was tested, and the Ki (Thrombin) was 3300 nM, the “selectivity ratio SR” value (factor Xa) was 7.2 and the Ki (factor Xa) was 460 nM.

For `N=C(N)c1ccc(CNC(=O)CNC(=O)[C@@H](CCc2ccccc2)NS(=O)(=O)Cc2ccccn2)cc1` [Compound 8, 2-PMs-d-homoPhe-Gly-4Amba×2 TFA], the Ki (Thrombin) was 4900 nM, the “selectivity ratio SR” value (factor Xa) was 96 and the Ki (factor Xa) was 51 nM.

For `N=C(N)c1ccc(CNC(=O)CNC(=O)[C@@H](CCc2ccccc2)NS(=O)(=O)Cc2cccnc2)cc1` [Compound 9, 3-PMs-dhomoPhe-Gly-4Amba×2 TFA], the Ki (Thrombin) was 5900 nM, the “selectivity ratio SR” value (factor Xa) was 95 and the Ki (factor Xa) was 62 nM.

`N=C(N)c1ccc(CNC(=O)CNC(=O)[C@@H](Cc2ccccc2)NS(=O)(=O)Cc2ccccc2)cc1` [Compound 10] was tested, and the Ki (Thrombin) was 68 nM, the “selectivity ratio SR” value (factor Xa) was 2.6 and the Ki (factor Xa) was 26 nM.

For `N=C(N)c1ccc(CNC(=O)CNC(=O)[C@@H](CCc2ccccc2)NS(=O)(=O)Cc2ccccc2)cc1` [Compound 11], the Ki (Thrombin) was 47 nM, the “selectivity ratio SR” value (factor Xa) was 7.2 and the Ki (factor Xa) was 6.5 nM.

For `N=C(N)c1ccc(CNC(=O)CNC(=O)[C@H](CCc2ccccc2)NS(=O)(=O)Cc2ccccc2)cc1` [Compound 12], the Ki (Thrombin) was 11000 nM, the “selectivity ratio SR” value (factor Xa) was 31 and the Ki (factor Xa) was 360 nM.

For `CS(=O)(=O)N[C@H](CCc1ccccc1)C(=O)NCC(=O)NCc1ccc(C(=N)N)cc1` [Compound 13], the Ki (Thrombin) was 1300 nM, the “selectivity ratio SR” value (factor Xa) was 1.2 and the Ki (factor Xa) was 1100 nM.

In the case of `N=C(N)c1ccc(CNC(=O)CNC(=O)[C@@H](CCc2ccccc2)NS(=O)(=O)Cc2ccncc2)cc1` [Compound 14], the Ki (Thrombin) is reported as 3600 nM, the “selectivity ratio SR” value (factor Xa) is reported as 45 and the Ki (factor Xa) is reported as 80 nM.

For `N=C(N)c1ccc(CNC(=O)[C@H](CO)NC(=O)[C@@H](CCc2ccccc2)NS(=O)(=O)Cc2ccccc2)cc1` [Compound 15], the Ki (Thrombin) was 600 nM, the “selectivity ratio SR” value (factor Xa) was 15 and the Ki (factor Xa) was 40 nM.

`COC(=O)Cc1ccc(CS(=O)(=O)N[C@H](CCc2ccccc2)C(=O)NCC(=O)NCc2ccc(C(=N)N)cc2)cc1` [Compound 16] was tested, and the Ki (Thrombin) was 1800 nM, the “selectivity ratio SR” value (factor Xa) was 47 and the Ki (factor Xa) was 38 nM.

With `N=C(N)c1ccc(CNC(=O)CNC(=O)[C@@H](CCc2ccccc2)NS(=O)(=O)Cc2ccc(CC(=O)O)cc2)cc1` [Compound 17] the Ki (Thrombin) was 14000 nM, the “selectivity ratio SR” value (factor Xa) was 259 and the Ki (factor Xa) was 54 nM.

In the case of `N=C(N)c1ccc(CNC(=O)CNC(=O)[C@@H](CCc2ccccc2)NS(=O)(=O)NC2CCCCC2)cc1.O=C(O)C(F)(F)F` [Compound 18], the Ki (Thrombin) is reported as 5400 nM, the “selectivity ratio SR” value (factor Xa) is reported as 49 and the Ki (factor Xa) is reported as 110 nM.

With `N=C(N)c1ccc(CNC(=O)CNC(=O)[C@@H](CCc2ccccc2)NS(=O)(=O)Cc2ccccc2N)cc1` [Compound 19] the Ki (Thrombin) was 920 nM, the “selectivity ratio SR” value (factor Xa) was 137 and the Ki (factor Xa) was 6.7 nM.

For `N=C(N)c1ccc(CNC(=O)CNC(=O)[C@@H](CCc2ccccc2)NS(=O)(=O)Cc2ccccc2[N+](=O)[O-])cc1` [Compound 20], the Ki (Thrombin) was 1200 nM, the “selectivity ratio SR” value (factor Xa) was 46 and the Ki (factor Xa) was 26 nM.

For `N=C(N)c1ccc(CNC(=O)CNC(=O)[C@H](NS(=O)(=O)Cc2ccccc2)C2Cc3ccccc3C2)cc1` [Compound 21], the Ki (Thrombin) was 150 nM, the “selectivity ratio SR” value (factor Xa) was 5.2 and the Ki (factor Xa) was 29 nM.

For `N=C(N)c1ccc(CNC(=O)CNC(=O)[C@@H](CCc2ccncc2)NS(=O)(=O)Cc2ccccc2)cc1` [Compound 22], the Ki (Thrombin) was 700 nM, the “selectivity ratio SR” value (factor Xa) was 259 and the Ki (factor Xa) was 2.7 nM.

In the case of `N=C(N)c1ccc(CNC(=O)CNC(=O)[C@@H](CNc2ccncc2)NS(=O)(=O)Cc2ccccc2)cc1` [Compound 23], the Ki (Thrombin) is reported as 2800 nM, the “selectivity ratio SR” value (factor Xa) is reported as 127 and the Ki (factor Xa) is reported as 22 nM.

For `N=C(N)c1ccc(CNC(=O)CNC(=O)C(CCc2cccnc2)NS(=O)(=O)Cc2ccccc2)cc1` (stereo not shown) [Compound 24], the Ki (Thrombin) was 2000 nM, the “selectivity ratio SR” value (factor Xa) was 400 and the Ki (factor Xa) was 5 nM.

For `N=C(N)c1ccc(CNC(=O)CNC(=O)C(CCc2ccccn2)NS(=O)(=O)Cc2ccccc2)cc1` (stereo not shown) [Compound 25], the Ki (Thrombin) was 2000 nM, the “selectivity ratio SR” value (factor Xa) was 952 and the Ki (factor Xa) was 2.1 nM.

For `N=C(N)c1ccc(CNC(=O)[C@H](CCC(=O)O)NC(=O)[C@@H](CCc2ccncc2)NS(=O)(=O)Cc2ccc(N)cc2)cc1` [Compound 26], the Ki (Thrombin) was 25000 nM, the “selectivity ratio SR” value (factor Xa) was 14705 and the Ki (factor Xa) was 1.7 nM.

With `N=C(N)c1ccc(CNC(=O)CNC(=O)[C@@H](CCc2ccc(O)cc2)NS(=O)(=O)Cc2ccc(N)cc2)cc1` [Compound 27] the Ki (Thrombin) was 560 nM, the “selectivity ratio SR” value (factor Xa) was 295 and the Ki (factor Xa) was 1.9 nM.

For `N=C(N)c1ccc(CNC(=O)CNC(=O)C(CCc2ccncc2)NS(=O)(=O)Cc2ccc(N)cc2)cc1` (stereo not shown) [Compound 28], the Ki (Thrombin) was 1000 nM, the “selectivity ratio SR” value (factor Xa) was 454 and the Ki (factor Xa) was 2.2 nM.

For `N=C(N)c1ccc(CNC(=O)CNC(=O)[C@@H](CCc2ccccc2)NS(=O)(=O)Cc2ccc(N)cc2)cc1` [Compound 29], the Ki (Thrombin) was 260 nM, the “selectivity ratio SR” value (factor Xa) was 100 and the Ki (factor Xa) was 2.6 nM.

In the case of `N=C(N)c1ccc(CNC(=O)[C@H](CCC(=O)O)NC(=O)[C@@H](CCc2ccc(O)cc2)NS(=O)(=O)Cc2ccc(N)cc2)cc1` [Compound 30], the Ki (Thrombin) is reported as 78000 nM, the “selectivity ratio SR” value (factor Xa) is reported as 22940 and the Ki (factor Xa) is reported as 3.4 nM.

`N=C(N)c1ccc(CNC(=O)CNC(=O)C(CCc2ccncc2)NS(=O)(=O)Cc2ccc([N+](=O)[O-])cc2)cc1` (stereo not shown) [Compound 31] was tested, and the Ki (Thrombin) was 1900 nM, the “selectivity ratio SR” value (factor Xa) was 543 and the Ki (factor Xa) was 3.5 nM.

`N=C(N)c1ccc(CNC(=O)CNC(=O)[C@@H](CCc2ccccc2)NS(=O)(=O)Cc2ccc(O)cc2)cc1` [Compound 32] was tested, and the Ki (Thrombin) was 380 nM, the “selectivity ratio SR” value (factor Xa) was 105 and the Ki (factor Xa) was 3.6 nM.

`N=C(N)c1ccc(CNC(=O)[C@H](CCC(=O)O)NC(=O)[C@@H](CCc2ccncc2)NS(=O)(=O)Cc2ccc(O)cc2)cc1` [Compound 33] was tested, and the Ki (Thrombin) was 100000 nM, the “selectivity ratio SR” value (factor Xa) was 27778 and the Ki (factor Xa) was 3.6 nM.

For `N=C(N)c1ccc(CNC(=O)[C@H](CCC(=O)O)NC(=O)[C@@H](CCc2ccc(O)cc2)NS(=O)(=O)Cc2ccccc2)cc1` [Compound 34], the Ki (Thrombin) was 19000 nM, the “selectivity ratio SR” value (factor Xa) was 5135 and the Ki (factor Xa) was 3.7 nM.

`CCOC(=O)CC[C@H](NC(=O)[C@@H](CCc1ccc(O)cc1)NS(=O)(=O)Cc1ccccc1)C(=O)NCc1ccc(C(=N)N)cc1` [Compound 35] was tested, and the Ki (Thrombin) was 1000 nM, the “selectivity ratio SR” value (factor Xa) was 200 and the Ki (factor Xa) was 5 nM.

For `N=C(N)c1ccc(CNC(=O)CNC(=O)[C@@H](CCc2ccc(O)cc2)NS(=O)(=O)Cc2ccc([N+](=O)[O-])cc2)cc1` [Compound 36], the Ki (Thrombin) was 860 nM, the “selectivity ratio SR” value (factor Xa) was 165 and the Ki (factor Xa) was 5.2 nM.

With `N=C(N)c1ccc(CNC(=O)[C@H](CCC(=O)O)NC(=O)C(CCc2ccncc2)NS(=O)(=O)Cc2ccc([N+](=O)[O-])cc2)cc1` (stereo partly shown) [Compound 37] the Ki (Thrombin) was 35000 nM, the “selectivity ratio SR” value (factor Xa) was 6250 and the Ki (factor Xa) was 5.6 nM.

A Ki (factor Xa) of 10 nM was found for `N=C(N)c1ccc(CNC(=O)CNC(=O)C(CCc2ccncc2)NS(=O)(=O)Cc2ccc(C(=O)O)cc2)cc1` (stereo not shown) [Compound 48] in this work.
